# Laboratory results as given in US20200131196A1 (Mount Tam Therapeutics, Inc., priority 2017, published 2020).
# Where two headings read alike, the source gives them in different places.
# Columns and labels:
# SCaBER = assay: OncoPanel cell proliferation assay, SCaBER; format: cell-based, human
# Procedure: (§1) Cells were grown in RPMI 1640, 10% FBS, 2 mM L-alanyl-L-glutamine, 1 mM Na pyruvate, or a special medium. Cells were seeded into 384-well plates and incubated in a humidified atmosphere of 5% CO2 at 37° C. Compounds were added the day following cell seeding. At the same time, a time zero untreated cell plate was generated. After a 3-day incubation period, cells were fixed and stained to allow fluorescence imaging of nuclei. Compounds (1 mM stock solutions) were serially diluted in half-log steps from the highest test concentration ([…]), and assayed over 10 concentrations with a maximum assay concentration of 0.1% DMSO. Automated fluorescence microscopy was carried out using a Molecular Devices ImageXpress Micro XL high-content imager, and images were collected with a 4× objective. 16-bit TIFF images were acquired and analyzed with MetaXpress 5.1.0.41 software.
# (§2) Cell proliferation was measured by the fluorescence intensity of an incorporated nuclear dye. The output is referred to as the relative cell count, where the measured nuclear intensity is transformed to percent of control (POC) using the following formula: […]
# (§3) Cellular response parameters were calculated using nonlinear regression to a sigmoidal single-site dose response model:
# (§4) EC50 is the test compound concentration at the curve inflection point or half the effective response (parameter C of the fitted curve solution). GI50 is the concentration needed to reduce the observed growth by half (midway between the curve maximum and the time zero value). “Cell Count Activity Area” is an estimate of the integrated area above the curve (Barretina, et al. The Cancer Cell Line Encyclopedia enables predictive modelling of anticancer drug sensitivity. Nature 483: 603-607). […] In rare instances, values <0 or >10 may be observed. […] Curve-fitting, calculations, and report generation was performed using a custom data reduction engine and MathIQ based software (AIM).
# ST486 = assay: OncoPanel cell proliferation assay, ST486; format: cell-based, human
# Procedure: as §1, §2, §3, §4
# 786-O = assay: OncoPanel cell proliferation assay, 786-O; format: cell-based, human
# Procedure: as §1, §2, §3, §4
# OVCAR3 = assay: OncoPanel cell proliferation assay, OVCAR3
# Procedure: Cells were seeded into 384-well plates and incubated in a humidified atmosphere of 5% CO2 at 37° C. Compounds were added the day following cell seeding. At the same time, a time zero untreated cell plate was generated. After a 3-day incubation period, cells were fixed and stained to allow fluorescence imaging of nuclei. Compounds (1 mM stock solutions) were serially diluted in half-log steps from the highest test concentration (1 micromol), and assayed over 10 concentrations with a maximum assay concentration of 0.1% DMSO. Automated fluorescence microscopy was carried out using a Molecular Devices ImageXpress Micro XL high-content imager, and images were collected with a 4× objective. 16-bit TIFF images were acquired and analyzed with MetaXpress 5.1.0.41 software.
# GI50 is the concentration needed to reduce the observed growth by half (midway between the curve maximum and the time zero value). […] In rare instances, values <0 or >10 may be observed. […] Curve-fitting, calculations, and report generation was performed using a custom data reduction engine and MathIQ based software (AIM).
# SK-N-AS = assay: OncoPanel cell proliferation assay, SK-N-AS; format: cell-based, human
# Procedure: as §1, §2, §3, §4
# NCIH446 = assay: OncoPanel cell proliferation assay, NCIH446; format: cell-based, human
# Procedure: as §1, §2, §3, §4
# [1] = Homo sapiens, read-out: Cell Count EC50
# [2] = Homo sapiens, read-out: Cell Count GI50
# [3] = Homo sapiens, read-out: Cell Count IC50
smiles,measurement,setting,value
"CO[C@H]1C[C@@H]2CC[C@@H](C)[C@@](O)(O2)C(=O)C(=O)N2CCCC[C@H]2C(=O)O[C@H]([C@H](C)C[C@H]2C[C@H]3C[C@@H]2C[C@@H]3O)CC(=O)[C@H](C)/C=C(\C)[C@@H](O)[C@@H](OC)C(=O)[C@H](C)C[C@H](C)/C=C/C=C/C=C/1C [Formula II, C37-[(1R,2S,4R,5S)-5-hyhroxybicyclo[2.2.1]heptane] rapamycin]",Relative cell count (%) Mean,SCaBER; 1.00E+00 microM,32.7%
same,Relative cell count (%) Mean,SCaBER; 1.00E-01 microM,44.5%
same,Relative cell count (%) Mean,SCaBER; 1.00E-02 microM,42.2%
same,Relative cell count (%) Mean,SCaBER; 1.00E-03 microM,56.1%
same,Relative cell count (%) Mean,SCaBER; 1.01E-04 microM,83.1%
same,Relative cell count (%) Mean,SCaBER; 3.16E-01 microM,36.3%
same,Relative cell count (%) Mean,SCaBER; 3.17E-02 microM,39.5%
same,Relative cell count (%) Mean,SCaBER; 3.17E-03 microM,50.7%
same,Relative cell count (%) Mean,SCaBER; 3.18E-04 microM,63.5%
same,Relative cell count (%) Mean,SCaBER; 3.18E-05 microM,93.1%
same,EC50,"SCaBER; Homo sapiens, Bladder, summary Table 5, read-out: EC50",0.25 nM
same,EC50,SCaBER; [1],0.25 nM
same,GI50,SCaBER; [2],0.872 nM
same,IC50,SCaBER; [3],1.59 nM
same,Cell Count Activity Area,ST486,3.05
same,Relative cell count (%) Mean,ST486; 1.00E+00 microM,55.2%
same,Relative cell count (%) Mean,ST486; 1.00E-01 microM,56.2%
same,Relative cell count (%) Mean,ST486; 1.00E-02 microM,57.6%
same,Relative cell count (%) Mean,ST486; 1.00E-03 microM,72.7%
same,Relative cell count (%) Mean,ST486; 1.01E-04 microM,90.5%
same,Relative cell count (%) Mean,ST486; 3.16E-01 microM,49.9%
same,Relative cell count (%) Mean,ST486; 3.17E-02 microM,55.2%
same,Relative cell count (%) Mean,ST486; 3.17E-03 microM,58.2%
same,Relative cell count (%) Mean,ST486; 3.18E-04 microM,77.5%
same,Relative cell count (%) Mean,ST486; 3.18E-05 microM,92.2%
same,EC50,ST486; [1],0.581 nM
same,GI50,ST486; [2],1.17 nM
same,IC50,ST486; [3],> 1000 nM
same,Relative cell count (%) Mean,"786-O; 786-0, 1.00E+00 microM",36.7%
same,Relative cell count (%) Mean,"786-O; 786-0, 1.00E-01 microM",45.5%
same,Relative cell count (%) Mean,"786-O; 786-0, 1.00E-02 microM",55.7%
same,Relative cell count (%) Mean,"786-O; 786-0, 1.00E-03 microM",78.6%
same,Relative cell count (%) Mean,"786-O; 786-0, 1.01E-04 microM",92.0%
same,Relative cell count (%) Mean,"786-O; 786-0, 3.16E-01 microM",43.3%
same,Relative cell count (%) Mean,"786-O; 786-0, 3.17E-02 microM",48.2%
same,Relative cell count (%) Mean,"786-O; 786-0, 3.17E-03 microM",65.0%
same,Relative cell count (%) Mean,"786-O; 786-0, 3.18E-04 microM",80.1%
same,Relative cell count (%) Mean,"786-O; 786-0, 3.18E-05 microM",96.8%
same,Cell Count Activity Area,786-O; 786-O,4.01
same,EC50,"786-O; Homo sapiens, 786-0, 786-O, read-out: Cell Count EC50",1.59 nM
same,GI50,"786-O; Homo sapiens, 786-0, 786-O, read-out: Cell Count GI50",7.1 nM
same,IC50,"786-O; Homo sapiens, 786-0, 786-O, read-out: Cell Count IC50",16.2 nM
same,EC50,OVCAR3; Homo sapiens,43 nM
same,EC50,"OVCAR3; Homo sapiens, OVCAR-3, read-out: Cell Count EC50",42.6 nM
same,GI50,"OVCAR3; Homo sapiens, OVCAR-3, read-out: Cell Count GI50",301 nM
same,IC50,"OVCAR3; Homo sapiens, OVCAR-3, read-out: Cell Count IC50",> 1000 nM
same,Cell Count Activity Area,OVCAR3; OVCAR3,1.09
same,Relative cell count (%) Mean,"OVCAR3; OVCAR3, 1.00E+00 microM",70.8%
same,Relative cell count (%) Mean,"OVCAR3; OVCAR3, 1.00E-01 microM",79.0%
same,Relative cell count (%) Mean,"OVCAR3; OVCAR3, 1.00E-02 microM",104.2%
same,Relative cell count (%) Mean,"OVCAR3; OVCAR3, 1.00E-03 microM",101.9%
same,Relative cell count (%) Mean,"OVCAR3; OVCAR3, 1.01E-04 microM",116.6%
same,Relative cell count (%) Mean,"OVCAR3; OVCAR3, 3.16E-01 microM",69.1%
same,Relative cell count (%) Mean,"OVCAR3; OVCAR3, 3.17E-02 microM",88.4%
same,Relative cell count (%) Mean,"OVCAR3; OVCAR3, 3.17E-03 microM",98.5%
same,Relative cell count (%) Mean,"OVCAR3; OVCAR3, 3.18E-04 microM",100.4%
same,Relative cell count (%) Mean,"OVCAR3; OVCAR3, 3.18E-05 microM",99.9%
same,Cell Count Activity Area,SK-N-AS,3.12
same,Relative cell count (%) Mean,SK-N-AS; 1.00E+00 microM,49.7%
same,Relative cell count (%) Mean,SK-N-AS; 1.00E-01 microM,54.0%
same,Relative cell count (%) Mean,SK-N-AS; 1.00E-02 microM,55.3%
same,Relative cell count (%) Mean,SK-N-AS; 1.00E-03 microM,77.8%
same,Relative cell count (%) Mean,SK-N-AS; 1.01E-04 microM,99.5%
same,Relative cell count (%) Mean,SK-N-AS; 3.16E-01 microM,49.5%
same,Relative cell count (%) Mean,SK-N-AS; 3.17E-02 microM,55.1%
same,Relative cell count (%) Mean,SK-N-AS; 3.17E-03 microM,70.3%
same,Relative cell count (%) Mean,SK-N-AS; 3.18E-04 microM,89.7%
same,Relative cell count (%) Mean,SK-N-AS; 3.18E-05 microM,97.7%
same,EC50,SK-N-AS; [1],1.41 nM
same,GI50,SK-N-AS; [2],4.82 nM
same,IC50,SK-N-AS; [3],422 nM
same,Cell Count Activity Area,NCIH446,1.23
same,Relative cell count (%) Mean,NCIH446; 1.00E+00 microM,80.9%
same,Relative cell count (%) Mean,NCIH446; 1.00E-01 microM,83.6%
same,Relative cell count (%) Mean,NCIH446; 1.00E-02 microM,83.2%
same,Relative cell count (%) Mean,NCIH446; 1.00E-03 microM,93.7%
same,Relative cell count (%) Mean,NCIH446; 1.01E-04 microM,102.5%
same,Relative cell count (%) Mean,NCIH446; 3.16E-01 microM,74.9%
same,Relative cell count (%) Mean,NCIH446; 3.17E-02 microM,83.3%
same,Relative cell count (%) Mean,NCIH446; 3.17E-03 microM,85.8%
same,Relative cell count (%) Mean,NCIH446; 3.18E-04 microM,87.3%
same,Relative cell count (%) Mean,NCIH446; 3.18E-05 microM,94.2%
same,EC50,"NCIH446; Homo sapiens, NCI-H446, read-out: Cell Count EC50",> 1000 nM
same,GI50,"NCIH446; Homo sapiens, NCI-H446, read-out: Cell Count GI50",> 1000 nM
same,IC50,"NCIH446; Homo sapiens, NCI-H446, read-out: Cell Count IC50",> 1000 nM
